Laboratory results reported in US20260265244A1, “HETEROCYCLIC COMPOUNDS AS STING ANTAGONISTS” (Boehringer Ingelheim International GmbH, priority 2022, published 2026).

Legend:
[1] = tested on: STING inhibition in human whole blood (IFNα2α production); test: Human whole blood assay (HWBA): cGAMP-stimulated IFNα2α production; type: cell-based; settings: Homo sapiens
Procedure: For the detection of STING inhibition in physiological environment human whole blood was stimulated by the cyclic dinucleotide cGAMP. Pathway activity was monitored by measuring the IFNα2α production.
Assay method: Compounds were delivered as 10 mM DMSO solution and serial diluted and transferred to the 96-well Cell culture Plate (Corning #3595), prefilled with 20 μl OptiMEM (Gibco #11058-021) in each well, using an Echo acoustic dispenser. Typically, 8 concentrations were used with the highest concentration at 10 μM in the final assay volume followed by ~1:5 dilution steps. DMSO concentration was set to 0.1% in the final assay volume. The 96 well assay plate contained 9 test compounds, a reference compound and DMSO in control wells.
Collection of human whole blood from 3 or more healthy donors (male or female, no medication for 7 days, exception contraceptive and thyroxine) as Na-citrate blood (e.g. 3.8% in Monovettes from Sarstedt) is conducted in parallel. Whole blood was kept at room temperature for a maximum of 3 hours after collection until use in the assay.
160 μl of the whole blood samples were transferred to each well of the 96-well assay plates filled with compound/OptiMEM. All assay plates are prepared as duplicates with blood from different donors. Blood plates were kept at room temperature for 60 minutes and continuous shaking with 450 rpm, covered with the lid, but not sealed.
A 10× cGAMP assay solution was diluted from a 2 mM stock solution in 1×HBSS immediately before use at room temperature. 20 μl of the 10× cGAMP/HBSS were added to all compound and all high control wells, whereas HBSS only was added to all low control wells.
After covering assay plates with aera seals and the lid, blood plates were kept at room temperature for 30 minutes and continuous shaking with 450 rpm, followed by an overnight incubation of 22 h at 37° C. in the incubator, without shaking.
For the detection of IFNα-2α in human plasma, the biotinylated capture antibody (Antibody set IFNA2, Meso Scale Diagnostics #B21VH-3, including coating and capture antibody) was diluted 1:17.5 in Diluent 100 (Meso Scale Diagnostics #R50AA-4, according to the manufacturer. U-Plex MSD GOLD 96-well Small Spot Streptavidin SECTOR Plates (Meso Scale Diagnostics #L45SA-5) were coated with 25 μl diluted capture antibody. Coated plates were incubated for 60 min at room temperature under continuous shaking at 700 rpm. MSD IFNα-2α plates were washed three times with 150 μl wash buffer (1×HBSS, 0.05% Tween).
After blocking the plates with 100 μl block solution/well (1×HBSS with 0.2% Tween, 2% BSA) for 60 min at room temperature and continuous shaking at 700 rpm, plates were emptied as dry as possible by dumping just before continuing with the human plasma. Whole Blood assay plates were centrifuged at 1600 rpm for 10 minutes. 25 μl of supernatant was transferred with a pipetting robotics from each whole blood plate to the corresponding IFNα-2α plate. Plates were sealed with microplate seals and kept at room temperature again under continuous shaking at 700 rpm for two hours. Next MSD IFNα-2α plates were washed three times with 150 μl wash buffer (1×HBSS, 0.05% Tween), before adding 25 μl MSD SULFO-TAG IFNα-2α Antibody solution (1:100 diluted in Diluent 3 (Meso Scale Diagnostics #R50AP-2) to each well of the plates. Afterwards plates were sealed with microplate seals and kept at room temperature again under continuous shaking at 700 rpm for two hours. Finally MSD IFNα-2α plates were washed three times with 150 μl wash buffer (1×HBSS, 0.05% Tween). 150 μl 2×Read buffer was added to each well and plates were immediately measured with the MSD Sector S600 Reader using the vendor barcode.
Data evaluation and calculation: For data evaluation and calculation, % control calculation of each well was based on the mean of high (cGAMP stimulated control) and mean of low (unstimulated control) controls by using the following formula: […]

human STING WT (R232) = target: T1, human STING WT (R232) (Homo sapiens, UniProt Q86WV6, H232R); test: Human STING HTRF binding assay (competitive, Cisbio 64BDSTGPEG)
T1 construct: purchased Cisbio 64BDSTGPEG
Procedure: Binders to human STING WT (R232) were identified using a competitive HTRF assay format (Cisbio 64BDSTGPEG), which uses d2-labeled STING ligand, a 6His (SEQ ID NO: 2) tagged human STING protein, and an anti 6His (SEQ ID NO: 2) Cryptate-labeled antibody. Compounds compete with the STING ligand-d2 and thereby prevents FRET from occurring, which can be measured by an EnVision™ reader (PerkinElmer).
Assay method: Compounds were delivered as 10 mM DMSO solution, serially diluted by an Agilent Bravo Workstation and transferred to the 384 well assay plate (Perkin Elmer #6005359) using a Cybiwell dispenser. Typically, 8 concentrations were used with the highest concentration at 10 μM or 1 μM in the final assay volume followed by ~1:5 dilution steps. DMSO concentration was set to 1% in the final assay volume. The 384 well assay plate contained 20 test compounds and DMSO in column 23 and 24. A cGAMP standard dilution row was prepared according to the manufacturer and transferred to each assay plate. After transfer of compound solution or dilution buffer for negative (high) and positive (low) controls, 5 μl of the human STING protein (cyclic binding domain (residues 138-379) of the WT R232 human version, fused to a 6 His tag (SEQ ID NO: 2) at the Nter part; 1:50 dilution in detection buffer) were dispensed to all wells except of the positive control, which received detection buffer only. Plates were the centrifuged for 20 sec at 1000 rpm. After that, 10 μl of Anti-6His-Cryptate antibody/Sting ligand-d2 mix was added to all wells using a Multidrop combi dispenser, followed by another sec/1000 rpm centrifugation step. After an incubation of the plates for 180 min at room temperature, […] at […] (HTRF ratio) was measured using an Envison Reader (PerkinElmer).
Data evaluation and calculation: For data evaluation and calculation, HTRF ratios were calibrated using the cGAMP standard curve. After that, the measurement of the low control was set as 0% control and the measurement of the high control was set as 100% control. The IC50 values were calculated using the standard 4 parameter logistic regression formula. Calculation: [y=(a−d)/(1+(x/c)^b)+d], a=low value, d=high value; x=conc M; c=IC50 M; b=slope;

T1 sequence (Q86WV6 138-379 H232R): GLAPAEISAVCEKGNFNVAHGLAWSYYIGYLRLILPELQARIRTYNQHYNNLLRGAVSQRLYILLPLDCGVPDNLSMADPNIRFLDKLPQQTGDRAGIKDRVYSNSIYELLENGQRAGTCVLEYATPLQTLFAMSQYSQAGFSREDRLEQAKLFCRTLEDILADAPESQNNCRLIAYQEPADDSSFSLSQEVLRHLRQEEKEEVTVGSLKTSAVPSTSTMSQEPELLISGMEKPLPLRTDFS

Row | SMILES | IC50 [1] | IC50 (human STING WT (R232))
1 | Cc1nc2nn(CCN3CCOCC3)cc2cc1-n1nc(-c2cccc3nn(C[C@H](O)c4ccccc4)cc23)c(C(C)C)c1C [Example 1, (1R)-2-[4-(5-methyl-1-{6-methyl-2-[2-(morpholin-4-yl)ethyl]-2H-pyrazolo[3,4-b]pyridin-5-yl}-4-(propan-2-yl)-1H-pyrazol-3-yl)-2H-indazol-2-yl]-1-phenylethan-1-ol] | 73 nM | 12.1 nM
2 | Cc1nc2nn(C)cc2cc1-n1nc(-c2cccc3nn(C[C@H](OCCO)c4ccccc4)cc23)c(C(C)C)c1C [Example 8, 2-[(1R)-2-[4-(1-{2,6-dimethyl-2H-pyrazolo[3,4-b]pyridin-5-yl}-5-methyl-4-(propan-2-yl)-1H-pyrazol-3-yl)-2H-indazol-2-yl]-1-phenylethoxy]ethan-1-ol] | 62 nM | 14.6 nM
3 | COc1ccc(Cn2cc3cc(-c4nc(-c5cccc6nn(C[C@H](O)c7ccccc7)cc56)c(C5CC5)n4C)c(C4CC4)nc3n2)cc1 [Example 9, (1R)-2-[4-(5-cyclopropyl-2-{6-cyclopropyl-2-[(4-methoxyphenyl)methyl]-2H-pyrazolo[3,4-b]pyridin-5-yl}-1-methyl-1H-imidazol-4-yl)-2H-indazol-2-yl]-1-phenylethan-1-ol] | 63 nM | 14.1 nM
4 | Cc1nc2nn(CCCCO)cc2cc1-n1nc(-c2cccc3nn(C[C@H](O)c4ccccc4)cc23)c(C(C)C)c1C [Example 12, 4-[5-(3-{2-[(2R)-2-hydroxy-2-phenylethyl]-2H-indazol-4-yl}-5-methyl-4-(propan-2-yl)-1H-pyrazol-1-yl)-6-methyl-2H-pyrazolo[3,4-b]pyridin-2-yl]butan-1-ol] | 71 nM | 4.4 nM
5 | Cc1c(C(C)C)c(-c2cccc3nn(C[C@H](O)c4ccccc4)cc23)nn1-c1cc2cn(C)nc2nc1C1CCCO1 (stereo partly drawn) [Example 13, (1R)-2-(4-{5-methyl-1-[2-methyl-6-(oxolan-2-yl)-2H-pyrazolo[3,4-b]pyridin-5-yl]-4-(propan-2-yl)-1H-pyrazol-3-yl}-2H-indazol-2-yl)-1-phenylethan-1-ol] | 73 nM | 17.5 nM
6 | Cc1nc2nn(C3CCOC3)cc2cc1-n1nc(-c2cccc3nn(C[C@H](O)c4ccccc4)cc23)c(C(C)C)c1C (stereo partly drawn) [Example 14, (1R)-2-(4-{5-methyl-1-[6-methyl-2-(oxolan-3-yl)-2H-pyrazolo[3,4-b]pyridin-5-yl]-4-(propan-2-yl)-1H-pyrazol-3-yl}-2H-indazol-2-yl)-1-phenylethan-1-ol] | 76 nM | 9.1 nM
7 | COCCn1cc2cc(-n3nc(-c4cccc5nn(C[C@H](O)c6ccccc6)cc45)c(C(C)C)c3C)c(C)nc2n1 [Example 16, (1R)-2-(4-{1-[2-(2-methoxyethyl)-6-methyl-2H-pyrazolo[3,4-b]pyridin-5-yl]-5-methyl-4-(propan-2-yl)-1H-pyrazol-3-yl}-2H-indazol-2-yl)-1-phenylethan-1-ol] | 79 nM | 6.6 nM
8 | Cc1nc2nn(C(C)C)cc2cc1-n1nc(-c2cccc3nn(C[C@H](O)c4ccccc4)cc23)c(C(C)C)c1C [Example 18, (1R)-2-(4-{5-methyl-1-[6-methyl-2-(propan-2-yl)-2H-pyrazolo[3,4-b]pyridin-5-yl]-4-(propan-2-yl)-1H-pyrazol-3-yl}-2H-indazol-2-yl)-1-phenylethan-1-ol] | 81 nM | 14.6 nM

The next lines start with the values.

Row | IC50 [1] | IC50 (human STING WT (R232)) | SMILES
9 | 54 nM | 15.8 nM | Cc1nc2nn(CCCC#N)cc2cc1-n1nc(-c2cccc3nn(C[C@H](O)c4ccccc4)cc23)c(C(C)C)c1C [Example 2, 4-[5-(3-{2-[(2R)-2-hydroxy-2-phenylethyl]-2H-indazol-4-yl}-5-methyl-4-(propan-2-yl)-1H-pyrazol-1-yl)-6-methyl-2H-pyrazolo[3,4-b]pyridin-2-yl]butanenitrile]
10 | 61 nM | 14.2 nM | Cc1nc2nn(Cc3cccnc3)cc2cc1-n1nc(-c2cccc3nn(C[C@H](O)c4ccccc4)cc23)c(C(C)C)c1C [Example 6, (1R)-2-[4-(5-methyl-1-{6-methyl-2-[(pyridin-3-yl)methyl]-2H-pyrazolo[3,4-b]pyridin-5-yl}-4-(propan-2-yl)-1H-pyrazol-3-yl)-2H-indazol-2-yl]-1-phenylethan-1-ol]
11 | 61 nM | 24.6 nM | Cc1nc2nn(CCCN3CCN(C)CC3)cc2cc1-n1nc(-c2cccc3nn(C[C@H](O)c4ccccc4)cc23)c(C(C)C)c1C [Example 7, (1R)-2-[4-(5-methyl-1-{6-methyl-2-[3-(4-methylpiperazin-1-yl)propyl]-2H-pyrazolo[3,4-b]pyridin-5-yl}-4-(propan-2-yl)-1H-pyrazol-3-yl)-2H-indazol-2-yl]-1-phenylethan-1-ol]
12 | 69 nM | 9.3 nM | Cn1c(-c2cc3cn(CCN4CCOCC4)nc3nc2C2CC2)nc(-c2cccc3nn(C[C@H](O)c4ccccc4)cc23)c1C1CC1 [Example 10, (1R)-2-[4-(5-cyclopropyl-2-{6-cyclopropyl-2-[2-(morpholin-4-yl)ethyl]-2H-pyrazolo[3,4-b]pyridin-5-yl}-1-methyl-1H-imidazol-4-yl)-2H-indazol-2-yl]-1-phenylethan-1-ol]
13 | 77 nM | 19.1 nM | Cc1c(C(C)C)c(-c2cccc3nn(C[C@H](O)c4ccc(OCCN5CCOCC5)cc4)cc23)nn1-c1cc2cn(C)nc2nc1C1CC1 [Example 15, (1R)-2-[4-(1-{6-cyclopropyl-2-methyl-2H-pyrazolo[3,4-b]pyridin-5-yl}-5-methyl-4-(propan-2-yl)-1H-pyrazol-3-yl)-2H-indazol-2-yl]-1-{4-[2-(morpholin-4-yl)ethoxy]phenyl}ethan-1-ol]
14 | 81 nM | 1.4 nM | COCc1nc2nn(C)cc2cc1-n1nc(-c2cccc3nn(C[C@H](O)c4ccccc4)cc23)c(C(C)C)c1C [Example 17, (1R)-2-(4-{1-[6-(methoxymethyl)-2-methyl-2H-pyrazolo[3,4-b]pyridin-5-yl]-5-methyl-4-(propan-2-yl)-1H-pyrazol-3-yl}-2H-indazol-2-yl)-1-phenylethan-1-ol]
